“And” between values parts separate entries of the source, which are not always exact repeats. Identical values can stand only once.
How the values were obtained:
[1] = i.v. in mice; cited from earlier work
[2] = test system: growth cones of lesioned sciatic nerve axons; assay: Nocodazole application onto lesioned sciatic nerve (growth cone to bulb conversion); type: in vivo, GFP-M mice
Protocol: The mice were anesthetized as described. The sciatic nerve was exposed at around 2.5 cm from the DRG cell bodies by a small incision and crushed with forceps for ten seconds. The incision was sutured and the skin stapled. The anesthesia was reversed and the animals were transferred to a heating pad for the following 24 hours.
Sciatic nerve lesion was performed as described. After 24 hours animals were re-anesthetized and 10 μl of 330 μM of nocodazole (Sigma-Aldrich, diluted in 5% DMSO in PBS) or 5% DMSO alone was applied onto lesion site with a pipette. The injury site was closed and animals were perfused 24 hours after nocodazole or DMSO application for staining and imaging.
(§1) The size of retraction bulbs and growth cones was quantified as follows: the maximum diameter of the retraction bulb and growth cone at the tip of the axon was measured and divided by the axon diameter of the same end structure where the axon looked normal.

[3] = test system: rat hippocampal neurons; assay: Microtubule stability assay: Nocodazole-induced microtubule retraction in hippocampal neurons; type: cell-based; conditions: for cells in which microtubule retraction was significantly higher in minor neurites compared to axons: stage 3 neurons, 5 min
Protocol: (§2) Primary hippocampal neurons derived from rat embryos were cultured following the protocol of Goslin and Banker (1991) and de Hoop et al. (1997). In brief, the hippocampi of E18 rats were dissected, trypsinized, and physically dissociated. The cells were then washed in HBSS, and 1.0-1.3×10^5 cells were plated onto poly-lysine-treated glass coverslips in 6 cm petri dishes containing minimal essential medium (MEM) and 10% heat-inactivated horse serum. The cells were kept in 5% CO2 at 36.5° C. After 12-18 hr, the coverslips were transferred to a 6 cm dish containing astrocytes in MEM and N2 supplements.
Analyzing short term microtubule depolymerization, the fate of individual neurons was followed. Cells localized on the grid of a Cellocate coverslip were photographed. The coverslip was then transferred into HEPES-buffered HBSS containing Nocodazole and incubated for 5 min at 36.5° C. in the incubator. [As Nocodazole is insoluble in aqueous solutions, special care was taken to ensure equal distribution of Nocodazole in HBSS.] After short term incubation, neurons were PHEM-fixed to eliminate depolymerized tubulin subunits and allow clear visualization of microtubules.
To visualize microtubules clearly, an alternative fixation method (PHEM-fixation) was used if required. To get rid of unpolymerized tubulin subunits, cells were simultaneously fixed and permeabilized for 15 min at 37° C. in PHEM buffer (60 mM PIPES and 25 mM HEPES) containing 3.7% paraformaldehyde, 0.25% glutaraldehyde, 5 mM EGTA, 1 mM MgCl, 3.7% sucrose, and 0.1% Triton X-100 (adapted from Smith, 1994) and quenched as above.
To determine the ratio of acetylated to tyrosinated α-Tubulin, the fluorescence signals of different channels of pictures taken with 63× magnification were compared. In the medial part of each process, the average fluorescence intensity of both acetylated and tyrosinated α-Tubulin was measured in a square of 5×5 pixel and the ratio of the values was determined. For minor neurites of the same cell, the average of the ratios was calculated in polarized neurons and used for comparison to the ratio of the corresponding axon. For unpolarized neurons, the highest ratio was compared to the average of the ratios of the remaining neurites. To measure microtubule retraction after Nocodazole treatment, fixed and stained neurons were relocated on the Cellocate coverslips. Pictures were taken of both the actin cytoskeleton (visualized by staining with Rhodamine-coupled Phalloidin) and the microtubules (stained with an antibody recognizing α-Tubulin). The actin cytoskeleton outlining the neuron was used as a reference point to measure retraction of microtubules from the distal part of the processes towards the cell body.
To test the resistance of microtubules to depolymerization, we applied the drug Nocodazole to stage 3 neurons, followed by fixation [in 3.7% PFA/Sucrose, 0.25% Glutaraldehyde, 1×PHEM-buffer and 0.1% Triton X-100] after a brief incubation (FIG. 2 A). Nocodazole is known to disrupt microtubules by binding to β-Tubulin and […], thus inhibiting microtubule dynamics. After fixation, neurons were doublestained for F-Actin and α-Tubulin or acetylated and tyrosinated α-Tubulin. Fluorescence microscopy and CCD imaging was used to quantify retraction of microtubules from the distal end of processes or distribution of posttranslational modifications of α-Tubulin after partial depolymerization of the microtubule cytoskeleton.

[4] = test system: rat hippocampal neurons; assay: Process and axon formation during long term incubation with low drug concentrations; type: cell-based; conditions: for number of processes per cell: read at 3 DIV; for total neurite length: 3 DIV; for number of processes which exceeded 60 μm: 2 further DIV
Protocol: as §2
For long term incubation, 0.1 to 30 nM Taxol (Sigma), 0.1 to 1 μM cytochalasin D (Sigma) or 3 nM to 10 μM Nocodazole (Sigma) were added to culture medium after 1 day in culture, and cells were further incubated at 36.5° C. Drugs were kept as stock solutions in DMSO at −20° C. (Taxol: 5 mM; Cytochalasin D: 10 mM; Nocodazole: 6.67 mM).
To detect proteins by immunohistochemistry, cells were fixed in 4% para-formaldehyde for 15 min at 37° C. (20 min for Tau-1 stainings), aldehyde groups were quenched in 50 mM ammonium chloride for 10 min, and the cells were then extracted with 0.1% Triton X-100 for 3 min.
Length and intensity measurements were done using Scion Image Beta 4.0.2 for MS Windows (based on NIH-image). For length measurements, cVisTec Professional 1.0 (cVisTec, Munich, Germany) was additionally used.
So far we had shown that axonal microtubules have a higher ability to resist depolymerization under harsh microtubule-destabilizing conditions. If there was a putative stability difference in axons and minor neurites, we hypothesized that particular growth conditions should allow formation of axons but not minor neurites. To assess the effect of modest microtubule destabilization on process formation, we treated hippocampal neurons after 1 DIV with low concentrations of Nocodazole. After 2 further DIV under such growth conditions cells were fixed [with 4% PFA/Sucrose] and stained for the axonal marker Tau-1. Using fluorescence microscopy, we evaluated effects on the formation of axons and minor neurites.
To test the influence of microtubule stabilization on axon formation we treated hippocampal neurons after 1 DIV with low concentrations of the microtubule-stabilizing drug Taxol (FIGS. 4A and H). […] Taxol (also known as Paclitaxel) is successfully used as an anti-cancer drug so far as it arrests dividing cells in the G2-M-phase of cell division. Neurons grown in the presence of low concentrations of Taxol were fixed [with 4% PFA/sucrose] after 3 to 7 DIV and stained for the axonal marker Tau-1 or the dendritic marker MAP2. Under control conditions, neurons had formed one axon and several minor neurites (FIGS. 4D and E). […] The number of processes which exceeded 60 μm had increased more than 2-fold by Taxol treatment (DMSO 1.53±0.05, 3 nM Taxol 2.93±0.46, 10 nM Taxol 3.58±0.54) (FIG. 4F). Similarly, the number of cells with more than one Tau-1-positive process went up about 4-fold in a concentration-dependent manner in Taxol-treated neurons (from 20.19±3.19% in DMSO-treated neurons to 80.81±1.71% neurons treated with 10 nM Taxol) (FIG. 4G).

[5] = test system: lesioned dorsal column (CNS) axons; assay: Taxol application immediately after dorsal column lesion: retraction bulb formation, in vivo imaging; parameters: species or system GFP-M mice
Description: (§3) We used an Olympus SZX-12 fluorescent stereomicroscope equipped with 1× Plan Apochromat objective and 1.6× Plan Fluorite objective (Olympus). The ColorView II camera integrated to the microscope was used to capture images through Analysis FIVE software (Soft Imaging System). Animals were anesthetized as described. After removing the laminae at T11/12 level, a small unilateral lesion was applied with the vannas spring scissors (FST) by transecting only the superficial axons of the dorsal columns. We imaged the injury site before and after lesion by acquiring serial images. The animals were kept on a heating pad during the imaging session.
(§4) A small unilateral spinal cord lesion at T12 level was performed as described. 10 μl of 1 μM or 5 μM taxol (Sigma-Aldrich, diluted in Saline) or saline as control was applied onto the lesion site each hour starting immediately after or 24 hours after lesioning. The lesion sites were visualized by in vivo imaging as described. The animals' anesthesia was boosted after 3 hours. At the end of the observation period animals were perfused and prepared for the confocal imaging as described.
as §1
The distance of taxol and saline treated axons to the lesion site was quantified as follows: The lesion site was outlined from the in vivo binocular images. We then measured the distance of the axonal tips to the proximal edge of the lesion.

[6] = test system: astrocytes; assay: Astrocyte numbers in taxol treated cultures; type: cell-based
[7] = test system: lesioned dorsal column (CNS) axons; assay: Taxol application 24 hours after dorsal column lesion: regenerating sprouts; type: in vivo, mice
Description: as §3, §4
The length of the sprouts quantified on confocal images. The length of all sprouts including sprouts emerging from sprouts measured and summed up for final value. As number of sprouts, only primary sprouts emerging from directly axonal shaft were quantified.

[8] = test system: neurons; conditions: CNS; cited from earlier work
[9] = 5 μM Nocodazole, brief incubation
[10] = stage 2 neurons (1 DIV), 3.3 μM Nocodazole

CCC(=O)O[C@H]1C[C@H]2OC[C@@]2(OC(C)=O)[C@H]2[C@H](OC(=O)c3ccccc3)[C@]3(O)C[C@H](OC(=O)[C@H](O)[C@@H](NC(=O)OC(C)(C)C)c4ccco4)C(C)=C([C@@H](O)C(=O)[C@]12C)C3(C)C [MAC-321, 5beta, 20-epoxy-1, 2alpha-, 4-, 7beta-, 10beta-, 13alpha-hexahydroxytax-11-en-9-one 4 acetate 2 benzoate 7-propionate 13-ester with (2R,3S)—N-tertbutoxycarbonyl-3-(2-furyl)isoserine]
Lethal dose [1]: 140 mg/kg

COC(=O)Nc1nc2ccc(C(=O)c3cccs3)cc2[nH]1 [Nocodazole]
axons that transformed their growth cones into a bulb ([2]; 10 μl of 330 μM nocodazole 24 h after sciatic nerve crush, evaluated 24 h after treatment): 42.3%±13.2% and 45%±13% | tip/axon shaft ratio of nocodazole induced retraction bulbs ([2]; 10 μl of 330 μM nocodazole, 24 h after treatment): 4.25±0.56 | microtubule retraction of minor neurites [3, 9]: 12.47±2.221 μm | retraction of axonal microtubules [3, 9]: 8.89 μm | average microtubule retraction of the remaining minor neurites [3, 10]: 13.71±2.84 μm | microtubule retraction in the minor neurite with the lowest retraction [3, 10]: 4.50±1.27 μm | cells in which microtubule retraction was significantly higher in minor neurites compared to axons ([3]; 3.3 μM Nocodazole): 59.3±6.9% | cells in which microtubule retraction was significantly higher in minor neurites compared to axons ([3]; 5 μM Nocodazole): 60%±5.1% | number of processes per cell ([4]; 15 nM Nocodazole from 1 DIV): 3.58±0.08 | increase of total neurite length from day 1 to day 3 in vitro ([4]; 45 nM Nocodazole): more than 3 fold | number of processes per cell ([4]; 45 nM Nocodazole from 1 DIV): 2.64±0.08 | total neurite length ([4]; 45 nM Nocodazole): 197.31 μm | increase of total neurite length from day 1 to day 3 in vitro ([4]; 75 nM Nocodazole): > 2 fold | number of processes per cell ([4]; 75 nM Nocodazole from 1 DIV): 2.20±0.18 | total neurite length ([4]; 75 nM Nocodazole): 134.89 μm

CC(=O)O[C@H]1C(=O)[C@@]2(C)[C@H]([C@H](OC(=O)c3ccccc3)[C@]3(O)C[C@H](OC(=O)[C@H](O)[C@@H](NC(=O)c4ccccc4)c4ccccc4)C(C)=C1C3(C)C)[C@]1(OC(C)=O)CO[C@@H]1C[C@@H]2O [Taxol, Tax-11-en-9-one, 5beta,20-epoxy-1,2alpha,4,7beta, 10beta,13alpha-hexahydroxy-, 4,10-diacetate 2-benzoate, 13-ester with (2R,3S)—N-benzoyl-3-phenylisoserine (8Cl)]
tip/axon ratio of retraction bulbs formed during treatment ([5]; 1 μM taxol, 5 biggest retraction bulbs per animal, 6 hours): 2.53±0.54 | animals with proximal axonal stumps as close as 25 μm to the injury site ([5]; 1 μM taxol, 6 hours after injury): 6 out of 11 | axons that developed retraction bulbs (tip/axon ratio >2) ([5]; 10 μl of 1 μM taxol once per hour from immediately after injury, first 6 hours): 22.8%±13.1% | astrocyte numbers [6]: drastic reduction in astrocyte numbers | microtubule retraction in Taxol-induced axon-like processes ([3]; 10 nM Taxol for 24 h, then 5 μM Nocodazole briefly): 7.48±1.761 μm | animals in which the extended retraction bulb with filopodia like extensions was observed ([7]; 5 μM taxol, 48 h post injury): 4 out of 12 | sprout terminals with extended retraction bulb with several filopodia like extensions ([7]; 5 μM taxol, 48 h post injury): 8.9%±5.0% | sprout terminals with slim growth cone morphology ([7]; 5 μM taxol, 48 h post injury): 57%±20% | sprout terminals with small retraction bulb morphology ([7]; 5 μM taxol, 48 h post injury): 41.8%±16.6% | total number of the sprouts from one axon ([7]; 10 μl of 5 μM taxol once each hour, 4-5 times, from 24 h post injury, read 48 h post injury): 7.83±1.79 | neuronal death [8]: induces dose-dependent neuronal death | number of processes which exceeded 60 μm ([4]; 3 nM Taxol from 1 DIV): 2.93±0.46 | cells with more than one Tau-1-positive process ([4]; 10 nM Taxol): 80.81±1.71% | number of processes which exceeded 60 μm ([4]; 10 nM Taxol from 1 DIV): 3.58±0.54 | increase of the number of cells with more than one Tau-1-positive process ([4]; 10 nM Taxol versus DMSO): about 4 fold | increase of the number of processes which exceeded 60 μm ([4]; Taxol treatment versus DMSO): more than 2 fold
